{
  "source": "paper PMC7291858",
  "about": "“An Enhanced Variant Designed From DLP4 Cationic Peptide Against Staphylococcus aureus CVCC 546” (Frontiers in Microbiology, 2020)",
  "key": {"[1]": {"test_system": "S. aureus CVCC 546", "assay": "Post-antibiotic effect (PAE)", "assay_type": "cell-based, Staphylococcus aureus", "conditions": "2 × MIC, 2 h exposure, mean ± SD, n = 3", "protocol": "The PAE was determined by exposing S. aureus cells to antimicrobial agent at 1×, 2×, or 4 × MIC for 2 h. After drug removal by dilution, the bacterial culture was incubated at 37°C and 250 rpm. An aliquot of samples (50 μL) were taken for CFU counts at different time intervals until bacterial cultures became turbid. Bacteria treated with DLP4 or vancomycin and left without treatment were used as the positive and blank controls, respectively. The PAE was calculated using the following formula: PAE = T − C, where T is the time for the CFU counts to increase by 10-fold above the count observed immediately after drug removal, and C is the corresponding time for the untreated control ([Oh et al., 2019])."}, "[2]": {"test_system": "Escherichia coli ATCC 25922", "assay": "MIC, microtiter plate assay", "assay_type": "cell-based", "conditions": "37°C, 16∼20 h, triplicate", "protocol": "(§1) The minimal inhibitory concentration (MIC) was evaluated by a microtiter plate assay ([Wiegand et al., 2008]). Serial 2-fold dilutions of test peptides were placed into a 96-well plate containing identical bacterial inoculum and incubated at 37°C for 16∼20 h. Vancomycin was used as antibiotic control. The MIC value was defined as the lowest peptide concentration where no visible growth occurred. All tests were made in triplicate."}, "[3]": {"test_system": "Staphylococcus aureus CVCC 546", "assay": "microbe, parasite or virus in culture", "assay_type": "cell-based", "method_in_brief": "(§2)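 MIC values come from triplicate microtiter plate tests in which serial 2-fold peptide dilutions were incubated with bacteria at 37°C for 16∼20 h; no visible growth defined the endpoint.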"}, "[4]": {"test_system": "mouse erythrocytes", "assay": "Hemolytic activity", "assay_type": "cell-based", "conditions": "128 μg/mL, 8% (v/v) mouse erythrocytes in PBS, 1 h, 37°C, absorbance 576 nm, n = 3", "protocol": "Hemolytic activity of peptides was evaluated with fresh mouse erythrocytes. Briefly, fresh mouse erythrocytes were collected, washed, and resuspended to a concentration of 8% (v/v) in PBS. Then, an aliquot of erythrocyte solution was added to 96-well plates containing an equal volume of peptide solution (1∼256 μg/mL) and was incubated for 1 h at 37°C. The erythrocyte suspension treated with 0.1% Triton X-100 and left untreated was employed as positive and negative controls, respectively. After centrifugation at 2000 rpm for 5 min, the supernatant was measured using a microplate reader at 576 nm. The percent hemolysis was calculated using the following formula: Percenthemolysis = [(A − A0)/(A100 − A0)] × 100%, where A, A100, and A0 represent the absorbance of the peptide sample and positive and negative controls, respectively."}, "[5]": {"test_system": "S. aureus CVCC 546", "assay": "Potassium ion (K+) leakage", "assay_type": "cell-based, Staphylococcus aureus", "conditions": "1 × MIC, treated for 150 min, 0.9% saline, 10^8 CFU/mL, ICP, n = 3", "protocol": "To further investigate the effects of peptides on membrane integrity, K^+ leakage determination was carried out as previously described ([Miao et al., 2016]). Briefly, S. aureus CVCC 546 cells were centrifuged, washed, and resuspended in 0.9% sterile saline. The cell suspension (10^8 CFU/mL) was treated with peptides at 1 × MIC. Cells untreated and treated with DLP4 or nisin were used as blank and positive controls. At time intervals of 30, 60, 90, 120, and 150 min, the suspensions were centrifuged at 12000 rpm for 5 min. The supernatants were then subjected to measurement by Agilent inductively coupled plasma optical emission (ICP-OES)."}, "[6]": {"test_system": "S. aureus ATCC 43300", "assay_type": "cell-based, Staphylococcus aureus", "conditions": "microtiter, serial 2-fold dilutions, 37°C, 16∼20 h, triplicate; – = no activity", "method_in_brief": "as §2"}, "[7]": {"test_system": "mouse macrophage RAW 264.7", "assay": "Cytotoxicity, MTT assay", "assay_type": "cell-based", "conditions": "256 μg/mL, RAW 264.7, MTT, n = 4", "protocol": "The cytotoxicity of peptides toward mouse macrophage RAW 264.7 was evaluated by the MTT assay as described previously ([Wang X. et al., 2018])."}, "[8]": {"test_system": "S. enteritidis CVCC 3377", "assay": "MIC, microtiter plate assay", "assay_type": "cell-based, Salmonella enteritidis", "conditions": "37°C, 16∼20 h, triplicate", "protocol": "as §1"}, "[9]": {"test_system": "S. aureus CVCC 546", "assay": "Time-kill assay", "assay_type": "cell-based, Staphylococcus aureus", "conditions": "MHB, 10^5 CFU/mL, 37°C, n = 3", "source_text": "Time-kill assay was used to assess the killing rates of S. aureus cells by AMPs in vitro, done by measuring the number of viable bacteria left at various times after exposure to the peptides. […] At different time intervals, a certain sample was taken, serially diluted, and plated on MHA for colonies counting. Cells treated with 2 × MIC DLP4 or vancomycin and left without treatment were used as the positive and blank controls, respectively ([Flamm et al., 2019])."}, "[10]": {"test_system": "S. aureus CVCC 546", "assay": "Mouse thigh infection model, CFU in thigh muscle", "assay_type": "in vivo, mouse (female CD-1)", "conditions": "10 mg/kg single i.p. dose 2 h post-infection, read 24 h post-infection, n = 6", "protocol": "Mouse experiments were carried out at Gene Engineering Laboratory, Feed Research Institute of Chinese Academy of Agricultural Sciences (CAAS) and complied with institutional animal care and use policies and procedures (AEC-CAAS-20090609). All animal studies were performed with female CD-1 mice, 6∼7 weeks old.\nS. aureus CVCC 546 in the exponential phase were resuspended in MHB and adjusted to 1 × 10^8 CFU/mL, a 0.1-mL inoculum was injected into the right thighs of mice. At 2 h post-infection, mice (n = 6) were administered intraperitoneally (i.p.) with peptides at 2.5, 5, or 10 mg/kg. Mice raised without any treatment, or treated with PBS, 10 mg/kg DLP4, or vancomycin were used as the blank and negative and positive controls, respectively. At 24 h post-infection, peripheral blood was collected and serum was separated for cytokine levels analysis by using enzyme-linked immunosorbent assay (ELISA) kit (R&D systems, United States). Mice were euthanized, the right thighs were aseptically removed and processed for colonies counting ([Ling et al., 2015])."}, "[11]": {"test_system": "E. coli K88", "assay": "MIC, microtiter plate assay", "assay_type": "cell-based, Escherichia coli", "conditions": "37°C, 16∼20 h, triplicate", "protocol": "as §1"}, "[12]": {"test_system": "S. epidermidis ATCC 12228", "assay": "MIC, microtiter plate assay", "assay_type": "cell-based, Staphylococcus epidermidis", "conditions": "37°C, 16∼20 h, triplicate", "protocol": "as §1"}, "[13]": {"test_system": "S. aureus CVCC 546", "assay": "Membrane permeabilization, PI flow cytometry", "assay_type": "cell-based, Staphylococcus aureus", "conditions": "0.5 h, 10^8 CFU/mL, n = 3", "protocol": "The effects of peptides on membrane permeabilization were measured by flow cytometry ([Zhu et al., 2018]). […] Cells untreated and treated with 2 × MIC DLP4 or vancomycin were used as blank and positive controls. The fluorescence of the dye was monitored at an excitation wavelength of 488 nm and an emission wavelength of 635 nm."}},
  "note": "Peptide text beside a SMILES is read from it.",
  "data": [
    {"smiles": "CC[C@H](C)[C@@H]1NC(=O)[C@@H]2CSSC[C@@H](C(=O)N[C@@H](CCCNC(=N)N)C(=O)N[C@@H](CCCCN)C(=O)O)NC(=O)[C@H](CC(N)=O)NC(=O)[C@@H]3CSSC[C@H](NC(=O)[C@H](C)NC(=O)[C@H](C)NC(=O)[C@H](Cc4c[nH]cn4)NC(=O)CNC(=O)[C@H](C(C)C)NC(=O)[C@H](CCCCN)NC(=O)[C@H](Cc4ccccc4)NC(=O)[C@@H]4CCCN4C(=O)[C@H](CO)NC(=O)[C@H](CC(C)C)NC(=O)[C@H](CC(C)C)NC(=O)[C@H](CC(=O)O)NC(=O)[C@@H](NC(=O)[C@@H](NC(=O)[C@H](C)N)[C@@H](C)O)CSSC[C@H](NC(=O)[C@H](Cc4c[nH]c5ccccc45)NC(=O)CNC(=O)CNC(=O)[C@H](CCCNC(=N)N)NC(=O)[C@H](CCCCN)NC(=O)CNC(=O)[C@H](CCCNC(=N)N)NC(=O)[C@H](C)NC1=O)C(=O)N[C@@H](CC(=O)O)C(=O)NCC(=O)N[C@@H](CCCNC(=N)N)C(=O)N[C@@H](C)C(=O)N[C@@H](C(C)C)C(=O)N3)C(=O)N[C@@H](C)C(=O)N[C@@H](C)C(=O)N[C@@H](Cc1c[nH]cn1)C(=O)N2", "note": "[ID13] (HELM PEPTIDE1{A.T.C.D.L.L.S.P.F.K.V.G.H.A.A.C.A.A.H.C.I.A.R.G.K.R.G.G.W.C.D.G.R.A.V.C.N.C.R.K}$PEPTIDE1,PEPTIDE1,3:R3-30:R3|PEPTIDE1,PEPTIDE1,16:R3-36:R3|PEPTIDE1,PEPTIDE1,20:R3-38:R3$$$V2.0; N-terminus and C-terminus assumed)", "values": [
      {"measurement": "PAE", "setting": "[1]", "result": "12.78 ± 0.28", "unit": "h"},
      {"measurement": "MIC", "setting": "[2]", "result": ">30.50", "unit": "µM"},
      {"measurement": "MIC", "setting": "[3]; Table 1, – = no activity", "result": 4},
      {"measurement": "MIC", "setting": "[3]; microtiter, 37°C, 16∼20 h, triplicate", "result": 0.95, "unit": "µM"},
      {"measurement": "hemolysis", "setting": "[4]", "result": 0.38, "unit": "%"},
      {"measurement": "level of released K+", "setting": "[5]", "result": 0.81, "unit": "mg/L"},
      {"measurement": "A1 (MIC against S. aureus ATCC 43300)", "setting": "[6]", "result": 4, "unit": "µg/mL"},
      {"measurement": "cell viability", "setting": "[7]", "result": 71.4, "unit": "%"},
      {"measurement": "MIC", "setting": "[8]", "result": ">30.50", "unit": "µM"},
      {"measurement": "decrease of CFU counts within 1 h", "setting": "[9]; 1 × MIC", "result": 2.16, "unit": "log10 CFU/mL"},
      {"measurement": "decrease of CFU counts within 1 h", "setting": "[9]; 2 × MIC", "result": 3.14, "unit": "log10 CFU/mL"},
      {"measurement": "decrease of CFU counts within 1 h", "setting": "[9]; 4 × MIC", "result": 3.4, "unit": "log10 CFU/mL"},
      {"measurement": "reduction of S. aureus in infected thigh muscles", "setting": "[10]", "result": "1.8 log10 (CFU/g)"},
      {"measurement": "MIC", "setting": "[11]", "result": ">30.50", "unit": "µM"},
      {"measurement": "MIC", "setting": "[12]", "result": 1.91, "unit": "µM"},
      {"measurement": "percentage of PI-positive cells", "setting": "[13]; 1 × MIC", "result": 47.2, "unit": "%"},
      {"measurement": "percentage of PI-positive cells", "setting": "[13]; 2 × MIC", "result": 48.2, "unit": "%"},
      {"measurement": "percentage of PI-positive cells", "setting": "[13]; 4 × MIC", "result": 52.8, "unit": "%"}
    ]}
  ]
}
